Assay results reported in patent publication US8563609B2, “Nitro fatty acids - neuroprotection and/or inhibition of cognitive decline” (Nitromega Corp., priority 2010, dated 2013).

Experiments:
[1] = 900 mgs per day oral, six months; cited from earlier work
[2] = test system: Abeta-mediated changes in membrane trafficking; test: exocytosis (formazan membrane trafficking) assay with Abeta oligomers in mature primary neuronal cultures; assay type: cell-based, rat; conditions: for amyloid beta (Abeta) in intracellular vesicles (figure legend): exocytosis assay, mature primary neuronal cultures grown for 3 weeks in vitro
Excerpt: Abeta oligomer preparations: Human amyloid peptide 1-42 was obtained from a variety of commercial sources, with lot-choice contingent upon quality control analysis. Abeta 1-42 oligomers made according to published methods or isolated from human brain tissue served as positive controls. Toxicity was monitored in each image-based assay via quantification of nuclear morphology visualized with the DNA binding dye DAPI. Nuclei that were fragmented were considered to be in late stage apoptosis. Peptide lots producing unusual peptide size ranges or significant toxicity at standard concentrations on neurons were rejected.
Image Processing: Images are captured and analyzed with the Cellomics VTI automated microscope platform. For statistical analysis, a Tukey-Kramer pair-wise comparison with unequal variance is used.
A primary neuron-based functional screening assay to detect small molecule Abeta oligomer blockers: Primary rat neurons grown for at least 3 weeks in vitro were chosen as the basis for this screening assay. […] More complex systems such as acute or organotypic brain slices are very useful but not amenable to high throughput screening. […] For this reason, primary neuronal cultures were chosen because of their ability to be used in high throughput screens and fidelity to what occurs in vivo.
Measuring membrane trafficking rate changes induced by oligomers via formazan morphological shifts has been used in cell lines to discover Abeta oligomer-blocking drugs.
Yellow tetrazolium salts are endocytosed by cells and reduced to insoluble purple formazan in the endosomal pathway. The level of purple formazan is a reflection of the number of actively metabolizing cells in culture, and reduction in the amount of formazan was taken as a measure of cell death or metabolic toxicity in culture as well as an indicator of membrane trafficking
The exocytosis assay was adapted for use with mature primary neuronal cultures grown for 3 weeks in vitro.

[3] = test system: motor neurons; test: motor neuron astrocyte coculture, in vitro model of ALS (SOD G93A astrocytes); assay type: cell-based, mice
Description: Recent studies have shown that nitro-arachidonic acid can have protective effects compared with native arachidonic acid in an in vitro model of ALS. This model is based on astrocyte-induced motoneuron toxicity induced by a mutation in CuZn SOD (SOD1).
Briefly, motor neuron astrocytes cocultures were made.
FIG. 2 illustrates the results of these experiments. Native arachidonic acid (AA) at 3 μM and 5 μM had no effect on the motor neuron survival compared with control.

[4] = primary neuronal cultures grown for 3 weeks in vitro, Abeta oligomers

**Q.** For `CC/C=C\C/C=C\C/C=C\C/C=C\C/C=C\C/C=C\CCC(=O)O` [DHA, docosahexaenoic acid], which tolerability [1] is on record?
**A.** Its tolerability is “well-tolerated”.

**Q.** For `C[C@]12N[C@H](Cc3ccccc31)c1ccccc12` [MK-801], which “block of Abeta oligomer effects on membrane trafficking (active / not active)” value (“block … (active / not active)” for short) [2, 4] is on record?
**A.** The value was “none were active”.

**Q.** Which results are given for `CCCCC/C=C\C/C=C\C/C=C\C/C=C\CCCC(=O)O` [arachidonic acid]?
**A.** motor neuron survival compared with control / mutant astrocyte induced motor neuron death ([3]; 3 μM): no effect; motor neuron survival compared with control / mutant astrocyte induced motor neuron death ([3]; 5 μM): no effect

**Q.** With `C[N+](C)(C)CCCCCC[N+](C)(C)C` [hexamethonium bromide] as the compound, how does the “block … (active / not active)” value [2, 4] read?
**A.** The value was “none were active”.

**Q.** Which EC50 ([2]; Rattus norvegicus, 504 h, primary neuronal cultures grown for 3 weeks in vitro, Abeta oligomers, read-out: EC50, inhibition of oligomer effects on membrane trafficking) does the source give for `CCCCCCCC/C=C\CCCCCCCC(=O)O` [oleic acid] here?
**A.** Its EC50 is 2080 nM.

**Q.** What about the “amyloid beta (Abeta) in intracellular vesicles (figure legend)” value [2] of the same compound?
**A.** Its value is “dose-dependent decrease”.

**Q.** For `O[C@H]1[C@H](O)[C@@H](O)[C@H](O)[C@@H](O)[C@@H]1O` [scyllo-inositol], which “block … (active / not active)” value [2, 4] is on record?
**A.** Its value is “none were active”.

**Q.** Which “amyloid beta (Abeta) in intracellular vesicles (figure legend)” value [2] does the source give for Nitro-oleic acid here?
**A.** The value was “dose-dependent decrease”.

**Q.** What about the “block … (active / not active)” value [2, 4] of the same compound?
**A.** Its value is “little statistically relevant effect on membrane trafficking”.

**Q.** What does the source list for nitro-arachidonic acid?
**A.** motor neuron survival compared with control / mutant astrocyte induced motor neuron death ([3]; 3 μM): inhibited mutant astrocyte induced motor neuron death; motor neuron survival compared with control / mutant astrocyte induced motor neuron death ([3]; 5 μM): inhibited mutant astrocyte induced motor neuron death; motorneuron death caused by co-culture with astrocytes containing a mutation in SOD1 (SOD G93A) ([3]; incubated for 24 hours with wild type motor neurons): limited motorneuron death
